Results reported in article PMC9745797 (2022).

Columns and labels:
[1] = test system: 5′-d(CGCATATATGCG)-3′ (DNA, duplex) CGCATATATGCG; assay: native nESI-MS; conditions: K+ 100 μM (KCl), NH4+ 150 mM; 150 mM ammonium acetate, pH 7, 1% DMSO; 9 μM DNA, 100 μM compound
[2] = test system: 5′-d(CGCATATATGCG)-3′ (DNA, duplex) CGCATATATGCG; assay: 1H NMR titration and NOESY; conditions: 50 mM phosphate pH 7.4, 9:1 H2O/D2O, 298 K (cooled to 274 K); 1 mM duplex; slow exchange

binding [1]: yes
SMILES: Cn1cc(NC(=O)c2cc(NC(=O)c3ccc(/C=C/c4cnc5ccccc5c4)cc3)cn2C)cc1C(=O)NCCN1CCOCC1
binding [2]: yes
